Patent publication US6589972B2, “β-phenylalanine derivatives as integrin antagonists” (Bayer Aktiengesellschaft, priority 1999, dated 2003)
Structures can show the parent of a compound that is named as a salt.

molecular target: T1, αvβ3 from human A375 cells (Homo sapiens, UniProt P05106+P06756); experiment: αvβ3 echistatin SPA binding assay; conditions: purified αvβ3, labelled echistatin, WGA SPA beads
T1 construct: αvβ3 from human A375 cells was purified; endogenous in cells; host or cells: human A375 cells; receptor purified from the cells and used detergent-solubilised
Protocol: αvβ3 from human A375 cells was purified analogously to a procedure which was described by Wong et al. (Molecular Pharmacology, 50, 529-537 (1996)). 10 μl of αvβ3 (5 ng) in TBS pH 7.6, 2 mM CaCl2, 1 mM MgCl2, 1% n-octyl glucopyranoside (Sigma); 10 μl of test substance in TBS pH 7.6, 0.1% DMSO and 45 μl of TBS pH 7.6, 2 mM CaCl2, 1 mM MgCl2, 1 mM MnCl2 were in each case incubated at room temperature for 1 h. 25 μl of WGA SPA beads (Amersham, 4 mg/ml) and 10 μl of echistatin (0.1 μCi, Amersham, chloramine T-labelled) were then added in each case. After 16 hours at room temperature, the samples were measured in a scintillation measuring apparatus (Wallac 1450).

T1 sequence (P06756 31-889 limits assumed): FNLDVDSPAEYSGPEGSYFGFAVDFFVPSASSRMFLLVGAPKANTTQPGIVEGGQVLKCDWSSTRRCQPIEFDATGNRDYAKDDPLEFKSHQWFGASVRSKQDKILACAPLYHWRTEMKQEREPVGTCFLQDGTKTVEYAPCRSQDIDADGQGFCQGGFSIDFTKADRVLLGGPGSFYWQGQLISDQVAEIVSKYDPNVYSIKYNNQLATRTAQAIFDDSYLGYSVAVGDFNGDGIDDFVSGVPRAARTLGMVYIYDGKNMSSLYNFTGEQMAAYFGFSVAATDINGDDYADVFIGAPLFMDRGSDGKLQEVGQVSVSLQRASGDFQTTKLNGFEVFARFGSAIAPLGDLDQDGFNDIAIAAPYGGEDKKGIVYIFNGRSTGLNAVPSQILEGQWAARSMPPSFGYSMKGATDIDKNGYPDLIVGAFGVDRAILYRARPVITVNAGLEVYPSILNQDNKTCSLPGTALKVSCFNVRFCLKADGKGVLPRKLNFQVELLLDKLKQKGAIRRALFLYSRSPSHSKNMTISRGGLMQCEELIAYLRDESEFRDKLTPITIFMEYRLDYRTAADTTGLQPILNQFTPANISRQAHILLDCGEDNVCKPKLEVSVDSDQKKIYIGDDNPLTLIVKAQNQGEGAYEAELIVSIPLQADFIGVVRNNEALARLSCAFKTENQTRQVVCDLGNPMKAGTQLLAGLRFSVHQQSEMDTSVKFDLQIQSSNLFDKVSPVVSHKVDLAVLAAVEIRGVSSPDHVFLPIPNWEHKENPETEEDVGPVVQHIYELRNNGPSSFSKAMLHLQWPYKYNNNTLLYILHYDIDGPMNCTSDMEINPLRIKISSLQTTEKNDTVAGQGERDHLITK
T1 sequence (P06756 891-1048 partner limits assumed): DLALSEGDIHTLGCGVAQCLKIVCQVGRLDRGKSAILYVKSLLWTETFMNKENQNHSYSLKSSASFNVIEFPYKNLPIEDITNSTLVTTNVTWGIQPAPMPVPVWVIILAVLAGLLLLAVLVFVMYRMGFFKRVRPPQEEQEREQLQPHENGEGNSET
T1 sequence (P05106 27-788): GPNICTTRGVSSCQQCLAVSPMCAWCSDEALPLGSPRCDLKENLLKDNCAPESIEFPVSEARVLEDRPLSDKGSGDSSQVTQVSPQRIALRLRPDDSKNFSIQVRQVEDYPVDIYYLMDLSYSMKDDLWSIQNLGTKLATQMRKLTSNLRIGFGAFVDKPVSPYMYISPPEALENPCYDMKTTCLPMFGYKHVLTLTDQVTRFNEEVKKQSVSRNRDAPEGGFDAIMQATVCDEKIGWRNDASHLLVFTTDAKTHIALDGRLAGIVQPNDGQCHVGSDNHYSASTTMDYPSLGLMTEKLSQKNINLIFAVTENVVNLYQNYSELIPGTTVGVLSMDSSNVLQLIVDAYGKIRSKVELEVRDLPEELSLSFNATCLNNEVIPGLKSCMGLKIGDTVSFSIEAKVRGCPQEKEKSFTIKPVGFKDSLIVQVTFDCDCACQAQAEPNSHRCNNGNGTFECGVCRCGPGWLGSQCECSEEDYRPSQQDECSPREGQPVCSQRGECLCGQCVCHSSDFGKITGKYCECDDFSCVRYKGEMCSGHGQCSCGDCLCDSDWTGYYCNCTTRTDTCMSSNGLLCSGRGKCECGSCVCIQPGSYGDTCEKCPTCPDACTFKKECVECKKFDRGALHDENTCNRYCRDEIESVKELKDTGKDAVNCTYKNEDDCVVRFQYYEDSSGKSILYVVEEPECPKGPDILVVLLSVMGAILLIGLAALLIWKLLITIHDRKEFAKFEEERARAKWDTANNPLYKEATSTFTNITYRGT

Row | IC50 | SMILES
1 | 115 nM | CCC(C(=O)NC(CC(=O)O)c1cccc(NS(=O)(=O)c2cccc(NC(=N)N)c2)c1)c1ccccc1 (mixture of isomers) [Example 7, 3-(3-[3-Guanidino-benzenesulphonylamino]-phenyl)-3-(2-phenylbutyrylamino)-propionic acid]
2 | 390 nM | N=C(N)Nc1cccc(C(=O)Nc2cccc(C(CC(=O)O)NS(=O)(=O)c3ccccc3)c2)c1 (stereo not shown) [Example 2, 3-Benzenesulphonylamino-3-[3-(3-guanidino-benzoylamino)-phenyl]-propionic acid, trifluoroacetic acid salt]
3 | 12.8 nM | N=C(N)Nc1cccc(S(=O)(=O)Nc2cccc(C(CC(=O)O)NC(=O)c3ccccc3)c2)c1 (stereo not shown) [Example 4, 3-Benzoylamino-3-[3-(3-guanidino-benzenesulphonylamino)-phenyl]-propionic acid]
4 | 72.4 nM | N=C(N)Nc1cccc(S(=O)(=O)Nc2cccc(C(CC(=O)O)NC(=O)Cc3ccc(Cl)cc3Cl)c2)c1 (stereo not shown) [Example 5]
5 | 33 nM | N=C(N)Nc1cccc(COc2cccc(C(CC(=O)O)NS(=O)(=O)c3ccccc3)c2)c1 (stereo not shown) [Example 8, 3-Benzenesulphonylamino-3-[3-(3-guanidino-benzyloxy)-phenyl]-propionic acid]
6 | 0.295 nM | O=C(O)CC(NS(=O)(=O)c1ccccc1)c1cccc(NS(=O)(=O)c2cccc(NC3=NCCN3)c2)c1 (stereo not shown) [Example 9]

The next lines start with the molecule.

Row | SMILES | IC50
7 | N=C(N)Nc1cccc(S(=O)(=O)Nc2cccc(C(CC(=O)O)NS(=O)(=O)c3ccccc3)c2)c1 (stereo not shown) [Example 1, 3-Benzenesulphonylamino-3-[3-(3-guanidino-benzenesulphonylamino)-phenyl]-3-propionic acid, trifluoroacetic acid salt] | 19 nM
8 | Cc1cc(C)c(CC(=O)NC(CC(=O)O)c2cccc(NS(=O)(=O)c3cccc(NC(=N)N)c3)c2)c(C)c1 (stereo not shown) [Example 3, 3-(3-[3-Guanidinobenzenesulphonylamino]-phenyl)-3-(2,4,6-trimethylphenylacetylamino)-propionic acid, trfiluoroacetic acid salt] | 153 nM
9 | N=C(N)Nc1cccc(S(=O)(=O)Nc2cccc(C(CC(=O)O)NC(=O)CCc3ccccc3)c2)c1 (stereo not shown) [Example 6, 3-(3-[3-Guanidino-benzenesulphonylamino]-phenyl)-3-phenylpropionylamino-propionic acid] | 36.2 nM

molecular target: αvβ3 receptor (Homo sapiens, UniProt P05106+P06756); experiment: not given; conditions: disclosed in WO98/00395; cited from earlier work
Sequence (P06756 31-889 limits assumed): as the sequence (P06756 31-889 limits assumed) above
Sequence (P06756 891-1048 partner limits assumed): as the sequence (P06756 891-1048 partner limits assumed) above
Sequence (P05106 27-788): as the sequence (P05106 27-788) above

Row | SMILES | IC50
10 | CC1(C)C2CCC1(CS(=O)(=O)NC(Cc1ccc(OCCCC(=O)NC(=N)N)cc1)C(=O)O)C(=O)C2 (stereo not shown) [(I)] | 0.13 nM
